“Also recorded” adds a separate entry of the source.
How the values were obtained:
[1] = tested on: glutathione-dependent peroxidases (SELH enzyme activity); test: Glutathione peroxidase activity assay; assay type: cell-based; details: LN229 cells
Text: (§1) Since glutathione peroxidase catalyzes the reduction of reactive oxidative species (ROS), the inventors assessed whether treatment with ISP I increased the generation of ROS in glioblastoma cell lines (LN229 and U251) and RCC cell lines (786-O and RCC4).
Glutathione peroxidase kit (Abcam, Cambridge, Mass. USA) was used to quantitate the activity of all of the glutathione-dependent peroxidases in live cells (2×10^6), which were harvested and homogenized with assay buffer provided in the kit. Then the supernatant was collected and incubated in accordance with the manufacturer's instructions. Absorbance at 340 nm was measured using the microplate reader mentioned above.

[2] = molecular target: T1, SELH (Sec44→Cys44) synthesized in bacteria (Homo sapiens, UniProt Q8IZQ5, U44C); test: Surface plasmon resonance (SPR) assay, SELH; assay type: binding; details: 25° C.
T1 construct: made in house
Text: Next, the inventors used a thermo-stability assay to confirm SELH was targeted by ISP I in LN229 and 786-O cell lines. The principle of the assay is based on altered protein thermal stabilization/destabilization due to ligand binding in living cells. […] (FIG. 5B and FIG. 6A). To verify further the specificity of ISP I's targeting of SELH, the inventors designed a surface plasmon resonance assay to assess the interaction of ISP I with SELH synthesized in bacteria.
The affinities constant (KD) and kinetics (ka and kd) of ISP I binding to SELH (Sec44→Cys44) were assayed using Biacore 8K (GE Healthcare, Sweden), all at 25° C. […] Coupling conditions were determined by protein isoelectric points. […]
To determine the binding affinity between ISP I and SELH (Sec44→Cys44), a series of ISP I dilutions was analyzed by single-cycle kinetics. […] The ISP I at various gradient concentrations and one zero concentration (running buffer) flowed over the immobilized SELH, with 120 s for binding, followed by disassociation for 120 s, and the obtained response units (RUs) were recorded. The RU values were collected, and the binding affinity data were calculated by kinetic models (1:1 interaction) within Biacore 8K Evaluation Software. The equilibrium dissociation constant (KD) was calculated to evaluate the ability of ISP I to interact with SELH.

γH2AX = γH2AX immunofluorescence staining and western blot (DNA damage); assay type: cell-based; details: 6 hours
Experimental: It is well-established that increased levels of ROS in cells leads to oxidative DNA damage, inducing genomic instability and inhibiting cell cycle progression. Cooke et al., FASEB J. 17: 1195 (2003). Since ISP I downregulates SELH, a key regulator of ROS response elements, the inventors first assessed whether treatment with ISP I augmented DNA damage in vitro.
Western blotting was performed to detect the protein expression level of SELH, NRF2 and γH2AX regulated by ISP I. The cells were lysed by RIPA buffer from ThermoFisher Scientific, and the concentration was measured using DC Protein Assay, a Bio-Rad product. Equal amounts of protein of each sample were loaded for gel electrophoresis and were transferred to nitrocellulose membrane, blocked and incubated overnight at 4° C. with primary antibodies. Then the membranes were washed with TBST (3 times, 10 min each). Exposure, imaging, and data analysis were done using a KwikQuant Imager system, a product of Kindle Biosciences (Greenwich, Conn. USA). The following antibodies were used: anti-phospho-histone H2A.X (Ser139), anti-NRF2 (Cell Signaling, Danvers, Mass. USA), anti-SELH (Abcam, Cambridge, Mass. USA), anti-GAPDH (Millipore, Temecula, Calif. USA).
For immunofluorescence assay, cells were seeded on a 35-mm confocal dish with glass bottom and were treated with ISP I. […] Then the cells were incubated with secondary antibody conjugated with Alexa Fluor-594 (Invitrogen), followed by staining with DAPI for nuclei. Images were obtained using Zeiss LSM 780 microscopy (Carl Zeiss, Oberkochen Germany).

[3] = tested on: other proteins (antioxidant components); test: Surface plasmon resonance (SPR) assay, other antioxidant components; assay type: binding
[4] = Tolerability in xenograft mouse models (bodyweight, histopathology, clinical chemistry); assay type: in vivo, mice
intracellular ROS = test: ROS-Glo H2O2 assay; assay type: cell-based; details: 24 hours
Experimental: as §1
Cell ROS level change brought about by ISP I was measured by ROS-Glo H2O2 assay kit, a product of Promega (Madison, Wis. USA). After treatment with ISP I for 24 hours, H2O2 substrate was added and cells were incubated for 6 hours. After incubation the supernatant was collected and was incubated with ROS-Glo™ Detection Solution for 20 min at room temperature with protection from light. Luciferase data were obtained with the Synergy H1 microplate reader, a product of BioTek (Winooski, Vt. USA).

786-O and RCC4 cells = test: Cell-cycle analysis by flow cytometry, RCC cells; assay type: cell-based
Experimental: To confirm the cytotoxic effect observed in the glioblastoma cell lines, the inventors assessed ISP I's effect on renal cell carcinoma (RCC) cell lines (ACHN, UM-RC-2, RCC4 and 786-0). Cell viability was assessed similarly via CKK8 analysis. […] (FIG. 4C, D).
For monitoring cell-cycle arrest of ISP I-treated cells, Click-iT EdU Flow Cytometry Assay Kits were used, a product of ThermoFisher Scientific. Cells were co-cultured with EdU at a concentration of 10 μM for 1 hour. After fixation and permeabilization, EdU-positive cells were labeled with Alexa Fluor 647 fluorescein. DAPI also was used for measuring total DNA content to identify differences in cell cycle phases. Data were collected by means of a BD LSRFortessa flow cytometer using FlowJo software. Cells that are positive with EdU and DAPI were in S-Phase of the cell cycle.

[5] = LN229, 786-O and IOMM xenograft mouse models

T1 sequence (Q8IZQ5 with tags, fused parts or gaps U44C): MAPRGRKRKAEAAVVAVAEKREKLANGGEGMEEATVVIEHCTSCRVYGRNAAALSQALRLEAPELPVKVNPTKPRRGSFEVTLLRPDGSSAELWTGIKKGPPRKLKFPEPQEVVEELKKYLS

COC1C(O)CC(=O)OC(C)CC=CC=CC(OC2CCC(N(C)C)C(C)O2)C(C)CC(CC=O)C1OC1OC(C)C(OC2CC(C)(O)C(OC(=O)CC(C)C)C(C)O2)C(N(C)C)C1O (stereo not drawn) [ISP I, 4″-isolvalerylspiramycin I]
glutathione peroxidase activity [1]: decrease, in a dose-dependent manner, of SELH enzyme activity; also recorded: significantly reduced glutathione peroxidase activity | binding to SELH (SPR) [2]: tightly binds to SELH | γH2AX expression (DNA damage marker) (γH2AX; 786-O and RCC4): increase of γH2AX expression | γH2AX expression (DNA damage marker) (γH2AX; LN229 and U251): higher quantities of γH2A.X | γH2AX expression (DNA damage marker) (γH2AX; LN229 and U251, listed as ISP 1): increase of γH2AX expression | binding to other proteins (SPR) [3]: does not bind with the other proteins | histopathology of major organs and standard clinical chemistry ([4]; 24 days after treatment): no hematologic, renal, pancreatic or liver toxicities | bodyweight during treatment [4, 5]: bodyweight maintenance; also recorded: animals maintained their bodyweight | tolerability of treatment [4, 5]: well-tolerated | intracellular ROS level (ROS-Glo H2O2) (intracellular ROS; 786-O and RCC4, 10 μg/ml): increased intracellular ROS levels | intracellular ROS level (ROS-Glo H2O2) (intracellular ROS; LN229 and U251, 10 μg/mL): increased intracellular ROS levels | cell distribution in cell-cycle phases (786-O and RCC4 cells): clear G0/G1 arrest; also recorded: induced cell-cycle arrest in the G0/G1 phase

Source: patent US11351185B2, “Use of isovalerylspiramycins as anti-cancer agents to inhibit metastasis” (priority 2020, dated 2022)
